pIC50: −log10 of the molar value.
Legend:
Bone marrow cell = assay: Inhibition of IL3 dependent proliferation in […] mouse bone marrow cells using [3H]thymidine by liquid scintillation counting; type: functional, cell-based
[1] = target: T1, Tyrosine-protein kinase SYK (Homo sapiens, UniProt P43405); assay: Inhibition of Syk in anti IgM-stimulated human Ramos cells assessed as BLNK phosphorylation by cellular assay
[2] = target: T2, Tyrosine-protein kinase ZAP-70 (Homo sapiens, UniProt P43403); assay: Inhibition of ZAP70 (unknown origin)
T2 sequence (P43403 whole entry): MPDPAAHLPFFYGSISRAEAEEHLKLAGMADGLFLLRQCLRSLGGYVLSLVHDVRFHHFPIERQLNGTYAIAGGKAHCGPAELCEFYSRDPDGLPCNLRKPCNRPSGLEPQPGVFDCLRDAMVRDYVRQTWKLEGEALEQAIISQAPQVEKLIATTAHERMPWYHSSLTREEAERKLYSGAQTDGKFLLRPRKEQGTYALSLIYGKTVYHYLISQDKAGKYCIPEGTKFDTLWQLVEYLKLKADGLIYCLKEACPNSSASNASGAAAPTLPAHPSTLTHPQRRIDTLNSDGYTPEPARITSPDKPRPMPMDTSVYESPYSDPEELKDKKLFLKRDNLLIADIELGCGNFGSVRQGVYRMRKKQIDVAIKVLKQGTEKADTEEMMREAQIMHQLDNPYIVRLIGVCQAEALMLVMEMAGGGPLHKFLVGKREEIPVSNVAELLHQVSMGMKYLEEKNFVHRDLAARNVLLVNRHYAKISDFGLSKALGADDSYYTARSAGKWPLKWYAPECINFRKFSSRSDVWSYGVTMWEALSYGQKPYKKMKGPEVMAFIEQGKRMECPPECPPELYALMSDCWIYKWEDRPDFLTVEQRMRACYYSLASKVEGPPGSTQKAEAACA

[3] = target: T1, Tyrosine-protein kinase SYK; assay: Inhibition of Syk (unknown origin) using 4 uM peptide assessed as product formation after 60 mins incubation by microfluidic mobility shift assay
Rattus norvegicus [4] = assay: Dose normalized AUC in Sprague-Dawley rat at 1 mg/kg, iv; type: ADME, organism-based; design: dose 1 mg/kg, route intravenous; conditions: in vivo
[5] = Plasma bioavailability in Sprague-Dawley rat at 1 mg/kg, iv and 3 mg/kg, po; type: ADME, organism-based
[6] = Drug metabolism in pig liver microsomes assessed as conversion into 5-(1H-indol-7-ylamino)-7-((1R,2S)-2-aminocyclohexylamino)pyrido[4,3-d]pyrimidine-2,4(1H,3H)-dione by NMR; type: ADME, Sus scrofa
[7] = Apparent permeability from basolateral to apical side in human Caco2 cells; type: ADME, cell-based; conditions: Caco-2
Rattus norvegicus [8] = assay: Dose normalized AUC in Sprague-Dawley rat at 3 mg/kg, po; type: ADME, organism-based; design: dose 3 mg/kg, route oral; conditions: in vivo
[9] = Half life in rat liver S9 fraction assessed as conversion into 5-(1H-indol-7-ylamino)-7-((1R,2S)-2-aminocyclohexylamino)pyrido[4,3-d]pyrimidine-2,4(1H,3H)-dione in presence of NADPH; type: ADME, subcellular
[10] = Apparent permeability from apical to basolateral side in human Caco2 cells; type: ADME, cell-based; conditions: Caco-2
Liver microsome = assay: (§1) Half life in rat liver microsomes; type: ADME; conditions: microsomes
[11] = Volume of distribution at steady state in Sprague-Dawley rat at 1 mg/kg, iv and 3 mg/kg, po; type: ADME, organism-based; conditions: in vivo, read-out: Vdss
[12] = Half life in dog liver S9 fraction; type: ADME, subcellular, Canis lupus familiaris
Liver = assay: Half life in rat liver S9 fraction assessed as conversion into 5-(1H-indol-7-ylamino)-7-((1R,2S)-2-aminocyclohexylamino)pyrido[4,3-d]pyrimidine-2,4(1H,3H)-dione; type: ADME, subcellular
[13] = Clearance in Sprague-Dawley rat at 1 mg/kg, iv and 3 mg/kg, po; type: ADME, organism-based; conditions: in vivo
[14] = Terminal half life Sprague-Dawley rat at 1 mg/kg, iv and 3 mg/kg, po; type: ADME, organism-based; conditions: in vivo, read-out: beta t1/2 (converted)
Rattus norvegicus [15] = assay: Cmax/dose in Sprague-Dawley rat at 1 mg/kg, iv and 3 mg/kg, po; type: ADME, organism-based; conditions: in vivo
[16] = target: T1, Tyrosine-protein kinase SYK; assay: Inhibition of Syk in human whole blood assessed as inhibition of P-SLP76 in CD14+ monocytes by flow cytometry
[17] = target: Voltage-gated inwardly rectifying potassium channel KCNH2 (Homo sapiens, UniProt Q12809); assay: Inhibition of human ERG by Q-patch assay
Sequence of Voltage-gated inwardly rectifying potassium channel KCNH2 (Q12809 whole entry): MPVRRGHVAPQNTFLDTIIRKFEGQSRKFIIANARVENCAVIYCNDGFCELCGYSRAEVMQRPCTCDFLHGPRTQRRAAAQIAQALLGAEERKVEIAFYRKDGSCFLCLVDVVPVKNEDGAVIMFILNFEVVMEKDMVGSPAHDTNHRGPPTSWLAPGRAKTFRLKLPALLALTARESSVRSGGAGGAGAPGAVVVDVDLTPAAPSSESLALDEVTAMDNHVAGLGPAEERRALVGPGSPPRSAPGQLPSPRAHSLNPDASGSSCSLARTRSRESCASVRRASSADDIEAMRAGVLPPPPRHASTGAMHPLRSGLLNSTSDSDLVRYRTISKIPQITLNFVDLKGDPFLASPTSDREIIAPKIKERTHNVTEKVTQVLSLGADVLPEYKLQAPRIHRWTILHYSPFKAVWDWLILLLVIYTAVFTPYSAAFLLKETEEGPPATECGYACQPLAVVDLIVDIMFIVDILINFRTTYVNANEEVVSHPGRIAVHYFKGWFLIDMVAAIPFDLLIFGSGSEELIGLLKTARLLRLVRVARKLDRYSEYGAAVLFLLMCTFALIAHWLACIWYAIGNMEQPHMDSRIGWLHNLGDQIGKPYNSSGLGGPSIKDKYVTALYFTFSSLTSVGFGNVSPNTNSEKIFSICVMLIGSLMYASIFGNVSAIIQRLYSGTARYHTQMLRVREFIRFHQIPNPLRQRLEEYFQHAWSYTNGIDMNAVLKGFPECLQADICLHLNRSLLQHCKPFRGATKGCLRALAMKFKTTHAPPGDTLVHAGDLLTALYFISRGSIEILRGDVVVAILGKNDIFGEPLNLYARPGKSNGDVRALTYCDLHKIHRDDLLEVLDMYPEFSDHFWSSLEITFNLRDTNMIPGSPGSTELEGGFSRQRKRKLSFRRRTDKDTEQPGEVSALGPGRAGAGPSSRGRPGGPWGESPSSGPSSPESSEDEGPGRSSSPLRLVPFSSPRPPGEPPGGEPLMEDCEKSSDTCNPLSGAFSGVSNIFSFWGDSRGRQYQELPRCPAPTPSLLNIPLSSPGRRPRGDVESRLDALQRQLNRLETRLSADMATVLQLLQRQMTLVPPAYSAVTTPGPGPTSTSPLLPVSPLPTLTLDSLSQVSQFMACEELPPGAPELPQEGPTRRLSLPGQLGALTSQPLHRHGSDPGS

[18] = as §1; type: ADME; conditions: liver microsomes
[19] = target: Tyrosine-protein kinase Lyn (Homo sapiens, UniProt P07948); assay: Inhibition of Lyn (unknown origin)
Sequence of Tyrosine-protein kinase Lyn (P07948 whole entry): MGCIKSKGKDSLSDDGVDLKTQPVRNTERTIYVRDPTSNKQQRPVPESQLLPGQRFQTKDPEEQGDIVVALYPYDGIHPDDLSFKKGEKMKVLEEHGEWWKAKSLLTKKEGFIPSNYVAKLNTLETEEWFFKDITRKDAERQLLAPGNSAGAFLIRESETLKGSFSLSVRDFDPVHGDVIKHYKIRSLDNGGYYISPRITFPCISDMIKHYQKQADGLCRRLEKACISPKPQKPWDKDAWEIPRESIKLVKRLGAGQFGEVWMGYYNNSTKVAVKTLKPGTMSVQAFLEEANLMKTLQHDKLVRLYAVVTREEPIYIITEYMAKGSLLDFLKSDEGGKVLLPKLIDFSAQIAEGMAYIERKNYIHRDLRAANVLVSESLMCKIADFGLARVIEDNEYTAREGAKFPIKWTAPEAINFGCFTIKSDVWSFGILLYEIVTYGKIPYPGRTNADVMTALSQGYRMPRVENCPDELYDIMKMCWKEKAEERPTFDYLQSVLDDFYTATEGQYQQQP

[20] = target: Tyrosine-protein kinase JAK2 (Homo sapiens, UniProt O60674); assay: Inhibition of JAK2 (unknown origin)
Sequence of Tyrosine-protein kinase JAK2 (O60674 whole entry): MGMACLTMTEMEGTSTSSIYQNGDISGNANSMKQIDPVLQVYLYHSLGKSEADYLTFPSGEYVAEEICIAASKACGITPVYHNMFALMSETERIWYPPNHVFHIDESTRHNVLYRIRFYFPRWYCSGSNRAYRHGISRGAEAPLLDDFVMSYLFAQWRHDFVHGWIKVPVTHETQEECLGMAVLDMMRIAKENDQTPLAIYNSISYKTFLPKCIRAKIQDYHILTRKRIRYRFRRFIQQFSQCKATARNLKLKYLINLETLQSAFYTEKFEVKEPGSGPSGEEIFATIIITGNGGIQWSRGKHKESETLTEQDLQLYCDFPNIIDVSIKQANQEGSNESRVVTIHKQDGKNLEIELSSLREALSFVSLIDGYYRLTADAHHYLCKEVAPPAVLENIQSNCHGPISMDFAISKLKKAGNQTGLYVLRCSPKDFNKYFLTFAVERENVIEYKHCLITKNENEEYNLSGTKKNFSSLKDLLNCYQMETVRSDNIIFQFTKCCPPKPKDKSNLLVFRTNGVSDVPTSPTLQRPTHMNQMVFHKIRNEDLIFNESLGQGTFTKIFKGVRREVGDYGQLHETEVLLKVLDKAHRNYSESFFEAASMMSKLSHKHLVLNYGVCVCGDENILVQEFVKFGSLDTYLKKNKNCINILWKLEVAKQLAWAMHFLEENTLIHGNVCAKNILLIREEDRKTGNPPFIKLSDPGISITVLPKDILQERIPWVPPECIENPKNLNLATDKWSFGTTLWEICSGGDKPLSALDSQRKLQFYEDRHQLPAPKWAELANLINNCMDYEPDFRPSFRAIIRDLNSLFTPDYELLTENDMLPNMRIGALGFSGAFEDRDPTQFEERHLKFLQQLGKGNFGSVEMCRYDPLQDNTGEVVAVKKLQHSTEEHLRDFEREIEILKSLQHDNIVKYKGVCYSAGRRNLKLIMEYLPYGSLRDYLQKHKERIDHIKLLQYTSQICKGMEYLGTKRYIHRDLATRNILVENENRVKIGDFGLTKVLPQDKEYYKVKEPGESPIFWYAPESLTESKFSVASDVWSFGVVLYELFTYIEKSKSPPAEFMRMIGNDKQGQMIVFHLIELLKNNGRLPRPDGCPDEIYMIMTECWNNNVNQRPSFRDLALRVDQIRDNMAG

SMILES	pIC50 [1]	pIC50 [2]	pIC50 [3]	pIC50 [16]	half-life [18]	pIC50 [19]	pIC50 [20]	pIC50 (Bone marrow cell)	also measured
NC(=O)c1cnc(N[C@@H]2CCCC[C@@H]2N)nc1Nc1cccc(-n2nccn2)c1	–	–	–	–	–	–	–	5.23	–
N[C@H]1CCCC[C@H]1Nc1cc2nc[nH]c(=O)c2c(Nc2cccc(-n3nccn3)c2)n1	6.11	7.13	8.30	–	–	–	–	6.60	–
N[C@H]1CCCC[C@H]1Nc1cc2nc[nH]c(=O)c2c(Nc2cccc3cc[nH]c23)n1	–	–	–	–	–	–	–	–	AUC/dose (Rattus norvegicus [4]): 629 nM·h; bioavailability [5]: 1%; Drug metabolism [6]: metabolite_detected; Papp B→A [7]: 15.2 ×10⁻⁶ cm/s; AUC/dose (Rattus norvegicus [8]): 9 nM·h; t1/2 [9]: < 5 min; Papp A→B [10]: 9.5 ×10⁻⁶ cm/s; t1/2 (Liver microsome): 22 min; Vd [11]: 31 L/kg; half-life [12]: > 120 min; t1/2 (Liver): < 5 min; clearance [13]: 69 mL/min/kg; half-life [14]: 660 min; Cmax/dose (Rattus norvegicus [15]): 1 nM
N[C@H]1COCC[C@H]1Nc1cc2nc[nH]c(=O)c2c(Nc2cccc3cc[nH]c23)n1	7.22	6.43	7.70	6.63	14 min	6.64	6.54	5.13	–
C[C@H](N)CNc1cc2nc[nH]c(=O)c2c(Nc2cccc3cc[nH]c23)n1	6.68	6.35	7.68	6.00	10 min	7.08	6.01	< 5.00	–

Now from value to compound, other results behind:

pIC50 [1]	pIC50 [2]	pIC50 [3]	pIC50 [16]	half-life [18]	pIC50 [19]	pIC50 [20]	SMILES	pIC50 (Bone marrow cell)	also measured
7.33	7.48	8.70	6.09	25 min	7.36	6.72	Cc1c[nH]c2c(Nc3nc(N[C@@H]4CCCC[C@@H]4N)cc4nc[nH]c(=O)c34)cccc12	5.42	AUC/dose (Rattus norvegicus [4]): 1109 nM·h; bioavailability [5]: 4%; Papp B→A [7]: 9.6 ×10⁻⁶ cm/s; AUC/dose (Rattus norvegicus [8]): 40 nM·h; Papp A→B [10]: 9.5 ×10⁻⁶ cm/s; pIC50 [17]: < 4.52; Vd [11]: 19 L/kg; clearance [13]: 39 mL/min/kg; half-life [14]: 780 min; Cmax/dose (Rattus norvegicus [15]): 4 nM
6.49	6.09	7.47	–	19 min	6.00	5.74	N[C@H]1CCCC[C@H]1Nc1cc2nc[nH]c(=O)c2c(Nc2cccc3c(Cl)c[nH]c23)n1	5.18	pIC50 [17]: 4.70
5.03	< 5.00	5.80	–	9 min	< 5.00	< 5.00	Cn1ccc2cccc(Nc3nc(N[C@@H]4CCCC[C@@H]4N)cc4nc[nH]c(=O)c34)c21	< 5.00	–
7.46	7.85	9.00	6.49	17 min	7.49	7.08	N[C@H]1CCCC[C@H]1Nc1cc2nc[nH]c(=O)c2c(Nc2cccc3[nH]ccc23)n1	5.38	–

— ChEMBL document CHEMBL3259804, “Syk inhibitors with high potency in presence of blood” (Bioorg Med Chem Lett, 2014)
